# Patent publication US8653271B2 (priority 2006, dated 2014)
# Legend:
# [1] = system: electrically-stimulated guinea pig ileum; details: in vitro; cited from earlier work
# [2] = Differential scanning calorimetry; assay type: physicochemical; details: for Mean activity of solid @ T = 25° C., a2: calculated from melting point and heat of fusion; for Heat of fusion, ΔHf: ±s.d., n = 3
# [3] = Stratum corneum/vehicle partition coefficient studies; assay type: in vitro ADME, human; details: mineral oil vehicle, 32° C., 48 h; no units
# Method: Human epidermis with stratum corneum (SC) side facing up was incubated on filter paper soaked with 0.1% trypsin in 0.5% sodium bicarbonate solution at 37° C. for 3 h. The SC membrane was separated and dried in a vacuum dessicator. After 24 h, the SC was dipped in acetone for 20 s to remove sebaceous lipids and dried again.
# Approximately 5 mg of SC was equilibrated with sub-saturated drug solutions in 0.5 g of mineral oil solution at 32° C. for 48 h. Two different levels of sub-saturated drug solutions, 10 and 20 nmol in 0.5 g of mineral oil, were used in SC/vehicle partition coefficient studies. However, irrespective of the drug concentrations used, the ratio derived should always be the same since the partition coefficient measurement is an equilibrium phenomenon. An aliquot of the mineral oil solution (10 μl) was withdrawn at the end of the study and was diluted to 1000 μl with acetonitrile. The samples were then analyzed by HPLC. The amount of the drug partitioned into the SC was measured by subtracting the amount present in the mineral oil after equilibration from the initial drug concentration in the mineral oil. The partition coefficient ratio was expressed as the concentration of the drug in 1 g of SC divided by the concentration of the drug in 1 g of mineral oil.
# [4] = human skin, values obtained from Kiptoo et al., cited from earlier work; for In vitro flux: codrug as NTXOL equivalent flux
# [5] = previous experiments; cited from earlier work
# [6] = Plasma hydrolysis of the carbonate codrug; assay type: in vitro ADME, guinea pig; details: for Guinea pig plasma half-life: guinea pig plasma in vitro at 37° C.
# Method: Guinea pig plasma, which was stored at −20° C., was thawed to room temperature. Known and sub-saturated amounts of the codrug (50 nmol) were added to approximately 2.0 ml of the guinea pig plasma and vortexed. Two-hundred μl aliquots of the spiked plasma were distributed into sealed vials, and incubated at 37° C. Samples were withdrawn at predetermined time intervals; 0, 0.5, 1, 2, 4, 6, 9, 24, 30, and 48 h. 500 μl of ACN was added to each sample to precipitate plasma protein. Each sample was vortexed and centrifuged at 10,000×g for 15 min. The supernatant was separated and evaporated under nitrogen at room temperature, and the residue was reconstituted with ACN for high-pressure liquid chromatography (HPLC) analysis. A standard curve was prepared from drug-spiked plasma samples processed by the same method. The amounts of the codrug remaining or parent drugs released were plotted against time. These hydrolytic profiles were fit to previously developed mathematical models using nonlinear least-squares regression analysis ([…]®, Micromath Inc., Salt Lake City, Utah) as described by the equations below: […]
# [7] = mice, versus naloxone and naltrexone; cited from earlier work
# [8] = humans, systemic circulation after oral dose of NTX; cited from earlier work
# [9] = Table 4; values obtained from Kiptoo et al.; cited from earlier work
# [10] = assay type: physicochemical; details: isotonic phosphate buffer pH 7.4, 32° C.
# Method: Equal amounts of the each of the codrug were distributed into labeled test-tubes (20 nmol in each tube). Care was taken to ensure that the entire codrug was dissolved and the solution remained clear. Hydrolysis of the carbonate codrug (˜20 nmol) was conducted in isotonic phosphate buffer pH 7.4 at 32° C. in a water-bath with continuous stirring. […] Samples were collected at predetermined time intervals and stored in the freezer at −20° C. until analyzed. All experiments were conducted in triplicate. An aliquot part (250 μL) of hydrolysis solutions was mixed with 750 μL of acetonitrile, vortexed for 30s, and analyzed by HPLC for the presence of codrug and the two corresponding parent drugs, as well as for the intermediate hydrolysis product, 23. […] A Brownlee C18 reversed-phase Spheri-5 μm column (220×4.6 mm) connected to a C18 reversed-phase guard column (15×3.2 mm) was utilized and detection of solutes was carried out at 215 nm. The mobile phase consisted of a mixture of acetonitrile: 0.1% trifluoroacetic acid adjusted to pH 3.0 with triethylamine (50:50, v/v). The mobile phase flow rate was 1.5 mL/min and 100 μL of hydrolysis sample was injected onto the column.
SMILES,potency relative to naloxone [1],potency relative to naltrexone [1],"Mean activity of solid @ T = 25° C., a2 [2]","Heat of fusion, ΔHf [2]","SC/Vehicle partition coefficient, PC [3]",In vitro flux [4],In vitro lag time [4],"flux and other in vitro permeation parameters, guinea pig skin relative to human skin [5]",Guinea pig plasma half-life [6],in vivo potency of an acute dose [7],half-life [8],Light mineral oil solubility [9],first-order rate constant k2 ([10]; generation of BUPOH via intermediate from codrug 26),first-order rate constant k1 ([10]; hydrolysis at carbonate linker generating NTX (25) or NTXOL (26)),Guinea pig plasma half-life ([6]; listed as CB-NTXOL-BUPOH),Guinea pig plasma half-life ([6]; listed as codrug),hydrolysis in guinea pig plasma compared to pH 7.4 phosphate buffer ([6]; in vitro)
"Oc1ccc2c3c1O[C@H]1[C@H](O)CC[C@@]4(O)[C@@H](C2)N(CC2CC2)CC[C@]314 [Compound 2, 6-β-naltrexol]",4.5 fold,2.8 fold,0.12,3.597 ± 0.0478 kcal/mol,73.91,0.36 ± 0.15 nmol cm^−2 h^−1,15.72 ± 1.76 h,5.6 fold,stable,less than the other two antagonists,about 12 h,30 ± 10 µM,,,,,
Cc1c(-c2cccc(Cl)c2)oc(=O)n1C(C)(C)COC(=O)Oc1ccc2c3c1OC1C(O)CCC4(O)C(C2)N(CC2CC2)CCC314 (centres unmarked) [Compound 26],,,0.20,3.031 ± 0.019 kcal/mol,200.61,1.34 ± 0.35 nmol cm^−2 h^−1,12.10 ± 0.77 h,,,,,2880 ± 90 µM,0.0139 ± 0.0006 h⁻¹,0.0240 ± 0.0007 h⁻¹,8.7 h,approximately 8.7 h,almost three-fold faster hydrolysis
